Experimental data: patent publication US8802655B2, “4-hydroxybenzomorphans” (Rensselaer Polytechnic Institute, priority 2004, dated 2014)
Like-named read-outs stand apart in the source and are kept apart here.

Assays:
Format in all cases: binding
[1] = biological target: μ opioid receptor (Homo sapiens, UniProt P35372); conditions: read-out: Ki (nM ± S.E.) [^3H]DAMGO (μ)
Method: (§1) The affinities of the compounds of the invention are determined by the method described in Wentland et al. [BioOrg.

[2] = biological target: T1, κ opioid receptor (UniProt P41144)
T1 construct: rows headed: Ki (nM ± S.E.) [^3H]U69,593 (κ); other: radioligand [3H]U69,593
Method: as §1

[3] = biological target: T2, δ opioid receptor (UniProt A0A286XTF2); design: unit μM; conditions: radioligand [3H]Naltrindole
Method: as §1

[4] = biological target: T2, δ opioid receptor; conditions: read-out: Ki (nM ± S.E.) [^3H]Naltrindole (δ); radioligand [3H]Naltrindole
Method: as §1

[5] = radioligand [3H]U69,593; read-out: Ki (nM ± S.E.) [^3H]U69,593 (κ)
[6] = read-out: Ki (nM ± S.E.) [^3H]Naltrindole (δ)
[7] = read-out: Ki (nM ± S.E.) [^3H]U69,593 (κ); radioligand [3H]U69,593

Chain of μ opioid receptor (P35372 whole entry): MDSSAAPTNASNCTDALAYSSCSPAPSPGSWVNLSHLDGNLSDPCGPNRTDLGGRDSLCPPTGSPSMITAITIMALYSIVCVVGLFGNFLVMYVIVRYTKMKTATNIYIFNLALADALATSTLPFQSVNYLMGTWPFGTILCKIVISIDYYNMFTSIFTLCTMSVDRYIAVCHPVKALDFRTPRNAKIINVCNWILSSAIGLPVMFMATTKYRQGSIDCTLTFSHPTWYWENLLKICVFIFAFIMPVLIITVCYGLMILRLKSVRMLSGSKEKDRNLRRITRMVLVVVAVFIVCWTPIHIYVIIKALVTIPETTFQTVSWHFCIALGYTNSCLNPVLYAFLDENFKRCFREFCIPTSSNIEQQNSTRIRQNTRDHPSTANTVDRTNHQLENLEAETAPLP

Structure (SMILES): NC(=O)c1ccc2c(c1O)[C@]13CCN(CC4CC4)[C@H](C2)[C@]1(O)CCC(=O)C3 [Sample 3, 3-Carboxyamido-4-hydroxy-naltrexone]
- Ki [1]: 0.052 ± 0.004 nM
- Ki [2, 5]: 0.23 ± 0.018 nM
- Ki [3, 6]: 2.6 ± 0.26 nM

Structure (SMILES): COc1ccc2c(c1O)[C@]13CCN(C)[C@H](C2)[C@@H]1C=CC(=O)C3 [Sample 7, 3-Methoxy-4-hydroxy-6-oxo-morphine]
- Ki [2, 7]: 740 ± 25 nM
- Ki [3, 6]: 2000 ± 80 nM

Structure (SMILES): COc1ccc2c(c1O)[C@]13CCN(CC4CC4)[C@H](C2)[C@]1(O)CCC(=O)C3 [Sample 4, 3-methoxy-4-hydroxy-naltrexone]
- Ki [2, 7]: 12 ± 0.29 nM
- Ki ([3]; read-out: Ki [^3H]Naltrindole (δ), unit μM): > 10000 nM

Structure (SMILES): COc1ccc2c(c1O)[C@]13CCN(C)[C@H](C2)[C@@H]1CCC(=O)C3 [Sample 8, 3-Methoxy-4-hydroxy-6-oxo-7,8-dihydro-morphine]
- Ki [2, 7]: 350 ± 8.5 nM
- Ki [3, 6]: 1200 ± 65 nM

Structure (SMILES): NC(=O)c1ccc2c3c1O[C@H]1C(=O)CC[C@@]4(O)[C@@H](C2)N(CC2CC2)CC[C@]314 [Sample 2, 3-Carboxyamido-naltrexone]
- Ki [1]: 1.9 ± 0.21 nM
- Ki [2, 5]: 22 ± 0.85 nM
- Ki [3, 6]: 110 ± 8.1 nM

Structure (SMILES): NC(=S)c1ccc2c(c1O)[C@]13CCN(CC4CC4)[C@H](C2)[C@]1(O)CCC(=O)C3 [Sample 26, 3-Thiocarboxyamido-4-hydroxy-naltrexone]
- Ki [2, 7]: 5 ± 0.72 nM
- Ki [3, 6]: 140 ± 11 nM

Structure (SMILES): NC(=O)c1ccc2c(c1O)[C@]13CCN(CC4CCC4)[C@H](C2)[C@]1(O)CCC(=O)C3 [Sample 21, 3-Carboxamido-4-hydroxy-6-oxo-nalbuphine]
- Ki [4]: 4.2 ± 0.36 nM
- Ki [2, 7]: 0.27 ± 0.013 nM
